Measurements from paper PMC9652805, “Design, synthesis and evaluation of novel 1,2,4-triazole derivatives as promising anticancer agents” (BMC Chemistry, 2022).

What was measured:
[1] = system: Hela cells (human cervical cancer cell line); assay: MTT cytotoxicity assay, Hela; format: cell-based; details: 72 h, mean ± SEM
Description: (§1) Cell cultures were obtained from the human lung cancer cell line (A549), human cervical cancer cell line (Hela), human breast cancer cell line (MCF-7) and Normal cells isolated from human lung tissue (MRC-5) taken from the National Cell Bank of Iran (NCBI, Pasteur Institute, Tehran, Iran). All cells were cultured in RPMI-1640 medium supplemented with 10% FBS, antibiotics (penicillin 100 U/mL, streptomycin 100 µg/mL), at 37 °C in a humidified atmosphere containing 5% CO2.
(§2) Cytotoxic activities of all the synthesized compounds were assessed by standard 3-(4,5-dimethylthiazol-yl)-2,5-diphenyl-tetrazolium bromide (MTT) assay. The assay was performed according to a known protocol. The cells were seeded and plated in 96-well microplates at a density of 1 × 10^4 cells per well in 180 μL complete culture media. After 24 h incubation, the cells were treated with […] of different concentrations of synthesized compounds ranging from 1 × 10^–4 to 1 × 10^–7 M at identical conditions in triplicates. After 72 h, media were replaced with 150 μL media containing 0.5 mg/mL of MTT solution [57]. The plates were incubated at 37 °C for additional four hours. Then, media containing MTT were discarded and 150 μL dimethylsulfoxide (DMSO, > 99%) was added to each well to dissolve the formazan crystals.

[2] = system: MRC-5 cells (normal cells from human lung tissue); assay: MTT cytotoxicity assay, MRC-5 normal cell line (safety); format: cell-based; details: mean ± SEM
Description: as §1, §2

[3] = system: A549 cells (human lung cancer cell line); assay: MTT cytotoxicity assay, A549; format: cell-based; details: mean ± SEM
Description: as §1, §2

[4] = system: MCF-7 cells (human breast cancer cell line); assay: MTT cytotoxicity assay, MCF-7; format: cell-based; details: mean ± SEM
Description: as §1, §2

| melting point [°C] | SMILES | IC50 ([1]; Homo sapiens, HeLa) [µM] | IC50 ([2]; Homo sapiens, MRC5, 72 h) [µM] | IC50 ([3]; Homo sapiens, A549, 72 h) [µM] | IC50 ([4]; Homo sapiens, MCF7, 72 h) [µM] | IC50 ([4]; 72 h) [µM] | IC50 [1] [µM] | IC50 ([2]; 72 h) [µM] | IC50 ([3]; 72 h) [µM] |
| --- | --- | --- | --- | --- | --- | --- | --- | --- | --- |
| 114 to 117 | O=C(c1ccccc1)C(c1ccccc1)C(C(=O)c1ccc(F)cc1F)n1cncn1 (stereo not shown) [Compound 10j, 1-(2,4-difluorophenyl)-3,4-diphenyl-2-(1H-1,2,4-triazol-1-yl) butane-1,4-dione] | 12.3 ± 1.9 | 101 ± 1.3 | 101 ± 1.8 | 45.4 ± 3.2 |  |  |  |  |
| 149 to 151 | O=C(CC(C(=O)c1ccc(Br)cc1)n1cncn1)c1ccccc1 (stereo not shown) [Compound 10c, 1-(4-bromophenyl)-4-phenyl-2-(1H-1,2,4-triazol-1-yl) butane-1,4-dione] | 32.4 ± 6.9 | 57.8 ± 1.7 | 104 ± 1.3 | 17.3 ± 5.4 |  |  |  |  |
| 93 to 96 | Clc1ccc(CC(C(c2ccccc2)c2ccccc2)n2cncn2)cc1 (stereo not shown) [Compound 8b, 1-(3-(4-chlorophenyl)-1,1-diphenylpropan-2-yl)-1H-1,2,4-triazole] | 198 ± 5.5 | 279 ± 2.8 | 124 ± 3.4 | 178 ± 2.5 |  |  |  |  |
| 88 to 91 | Brc1ccc(CC(C(c2ccccc2)c2ccccc2)n2cncn2)cc1 (stereo not shown) [Compound 8c, 1-(3-(4-bromophenyl)-1,1-diphenylpropan-2-yl)-1H-1,2,4-triazole] | 79.1 ± 2.5 | 104 ± 7.3 | 104 ± 7.3 | 52.8 ± 7.4 |  |  |  |  |
| 153 to 156 | O=C(CC(C(=O)c1ccc(Cl)cc1Cl)n1cncn1)c1ccccc1 (stereo not shown) [Compound 10e, 1-(2,4-dichlorophenyl)-4-phenyl-2-(1H-1,2,4-triazol-1-yl) butane-1,4-dione] | 31.6 ± 4.2 | 104 ± 7.3 | 104 ± 5.9 | 45.4 ± 6.5 |  |  |  |  |
| 115 to 118 | O=C(CC(C(=O)c1ccccc1)n1cncn1)c1ccccc1 (stereo not shown) [Compound 10a, 4-diphenyl-2-(1H-1,2,4-triazol-1-yl) butane-1,4-dione] |  | 21.7 ± 1.5 | 21.1 ± 4.2 | 6.43 | 6.4 ± 1.7 |  |  |  |
| 168 to 171 | O=C(c1ccccc1)C(c1ccccc1)C(C(=O)c1ccc(Br)cc1)n1cncn1 (stereo not shown) [Compound 10i, 1-(4-bromophenyl)-3,4-diphenyl-2-(1H-1,2,4-triazol-1-yl) butane-1,4-dione] | 59.3 ± 2.7 | 218 ± 3.2 | 135 ± 5.3 | 72.2 ± 6.5 |  |  |  |  |
| 185 to 188 | O=C(c1ccccc1)C(c1ccccc1)C(C(=O)c1ccccc1)n1cncn1 (stereo not shown) [Compound 10f, 4-triphenyl-3-(1H-1,2,4-triazol-1-yl) butane-1,4-dione] | 82.7 ± 5.8 | 289 ± 10.2 | 114 ± 7.6 | 134 ± 4.5 |  |  |  |  |
| 81 to 83 | c1ccc(CC(Cc2ccccc2)n2cncn2)cc1 [Compound 8a, 1-(1,3-diphenylpropan-2-yl)-1H-1,2,4-triazole] | 142 ± 2.1 | 279.1 ± 2.5 | 127 ± 4.9 | 158 ± 3.5 |  |  |  |  |
| 131 to 133 | O=C(CC(C(=O)c1ccc(Cl)cc1)n1cncn1)c1ccccc1 (stereo not shown) [Compound 10b, 1-(4-chlorophenyl)-4-phenyl-2-(1H-1,2,4-triazol-1-yl) butane-1,4-dione] | 48.3 ± 4.1 | 259 ± 8.3 | 110 ± 1.3 | 62.6 ± 2.5 |  |  |  |  |
| 162 to 165 | O=C(CC(C(=O)c1ccc(Br)cc1)n1cncn1)c1ccc(Cl)cc1 (stereo not shown) [Compound 10d, 1-(4-bromophenyl)-4-(4-chlorophenyl)-2-(1H-1,2,4-triazol-1-yl) butane-1,4-dione] | < 12 | 42.8 ± 2.1 | 16.5 ± 2.6 | 10.2 ± 2.1 |  | 9.8 ± 1.7 |  |  |

Continued, compound first:

| SMILES | melting point [°C] | IC50 ([1]; Homo sapiens, HeLa) [µM] | IC50 ([2]; Homo sapiens, MRC5, 72 h) [µM] | IC50 ([3]; Homo sapiens, A549, 72 h) [µM] | IC50 ([4]; Homo sapiens, MCF7, 72 h) [µM] | IC50 ([4]; 72 h) [µM] | IC50 [1] [µM] | IC50 ([2]; 72 h) [µM] | IC50 ([3]; 72 h) [µM] |
| --- | --- | --- | --- | --- | --- | --- | --- | --- | --- |
| O=C(c1ccccc1)C(c1ccccc1)C(C(=O)c1ccc(Cl)cc1Cl)n1cncn1 (stereo not shown) [10 k, 1-(2,4-dichlorophenyl)-3,4-diphenyl-2-(1H-1,2,4-triazol-1-yl) butane-1,4-dione] | 178 to 181 | 121 ± 6.8 | 148 ± 6.1 | 102 ± 5.2 | 44.1 ± 7.6 |  |  |  |  |
| O=C(c1ccc(Cl)cc1Cl)C(Cc1ccccc1)n1cncn1 (stereo not shown) [Compound 7b, 1-(2,4-dichlorophenyl)-3-phenyl-2-(1H-1,2,4-triazol-1-yl) propan-1-one] | 121 to 123 | 7.9 ± 3.1 | 72.6 ± 3.4 | 75.8 ± 4.6 | 23.4 ± 2.6 |  |  |  |  |
| O=C(c1ccc(Cl)cc1Cl)C(C(c1ccccc1)c1ccccc1)n1cncn1 (stereo not shown) [Compound 7e, 1-(2,4-dichlorophenyl)-3,3-diphenyl-2-(1H-1,2,4-triazol-1-yl) propan-1-one] | 118 to 121 |  | 27.8 ± 3.7 | 9.4 ± 1.8 | 4.7 ± 1.4 |  |  |  |  |
| N.N.[Cl][Pt][Cl] [Cis platin, reference compound] |  |  |  |  |  | 36.5 ± 1.9 | 12.3 ± 3.3 | 45.2 ± 2.5 | 14.8 ± 0.27 |
| O=C(c1ccccc1)C(c1ccccc1)C(C(=O)c1ccc(F)cc1)n1cncn1 (stereo not shown) [10 g, 1-(4-fluorophenyl)-3,4-diphenyl-2-(1H-1,2,4-triazol-1-yl) butane-1,4-dione] | 154 to 157 | 128 ± 6.1 | 257 ± 4.3 | 150 ± 4.9 | 93 ± 3.1 |  |  |  |  |
| O=C(c1ccc(Cl)cc1)C(C(c1ccccc1)c1ccccc1)n1cncn1 (stereo not shown) [Compound 7c, 1-(4-chlorophenyl)-3,3-diphenyl-2-(1H-1,2,4-triazol-1-yl) propan-1-one] | 140 to 142 | 81.7 ± 6.3 | 201 ± 9.5 | 177 ± 5.9 | 60 ± 4.9 |  |  |  |  |
| O=C(c1ccc(Br)cc1)C(C(c1ccccc1)c1ccccc1)n1cncn1 (stereo not shown) [Compound 7d, 1-(4-bromophenyl)-3,3-diphenyl-2-(1H-1,2,4-triazol-1-yl) propan-1-one] | 110 to 113 | < 12 | 35.6 ± 2.7 | 43.4 ± 4.5 | 9.8 ± 0.9 |  | 12.1 ± 3.6 |  |  |
| O=C(c1ccccc1)C(c1ccccc1)C(C(=O)c1ccc(Cl)cc1)n1cncn1 (stereo not shown) [10 h, 1-(4-chlorophenyl)-3,4-diphenyl-2-(1H-1,2,4-triazol-1-yl) butane-1,4-dione] | 174 to 176 | 172 ± 7.1 | 249 ± 5.8 | 112 ± 10.8 | 89 ± 5.2 |  |  |  |  |
| O=C(c1ccccc1)C(Cc1ccccc1)n1cncn1 (stereo not shown) [Compound 7a, 1,3-diphenyl-2-(1H-1,2,4-triazol-1-yl) propan-1-one] | 145 to 148 | 92.4 ± 7.3 | > 300 | 150 ± 5.3 | 154 ± 5.8 |  |  |  |  |
